Patent US20030044399A1, “Method of treatment” (SmithKline Beecham Corporation, priority 1998, published 2003)

Columns and labels:
Cruzain = Cruzain (Trypanosoma cruzi, UniProt P25779); assay: Cysteine protease inhibition, progress curve method, cruzain; assay type: biochemical; details: 4 uM Ac-Lys-Glu-Lys-Leu-Arg-AMC, 100 mM Na acetate pH 5.5, 5 mM cysteine; read-out: Cruzain Ki
Outline: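 Buffer was 100 mM sodium acetate pH 5.5 with 5 mM cysteine and 2% DMSO, at ambient temperature; reactions started with enzyme, and AMC formation was followed for 20–30 min. Substrates: Leishmania and Schistosoma, 10 uM Cbz-Phe-Arg-AMC; falcipain, 10 uM Cbz-Leu-Arg-AMC; cruzain, 4 uM Ac-Lys-Glu-Lys-Leu-Arg-AMC. Linear curves gave Ki,app; curved ones gave kobs/[I].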

Falcipain 2 = Falcipain 2 (Plasmodium falciparum, UniProt Q8I6U4); assay: Cysteine protease inhibition, progress curve method, falcipain; assay type: biochemical; details: 10 uM Cbz-Leu-Arg-AMC, 100 mM Na acetate pH 5.5, 5 mM cysteine
Chain of Falcipain 2 (Q8I6U4 244-484): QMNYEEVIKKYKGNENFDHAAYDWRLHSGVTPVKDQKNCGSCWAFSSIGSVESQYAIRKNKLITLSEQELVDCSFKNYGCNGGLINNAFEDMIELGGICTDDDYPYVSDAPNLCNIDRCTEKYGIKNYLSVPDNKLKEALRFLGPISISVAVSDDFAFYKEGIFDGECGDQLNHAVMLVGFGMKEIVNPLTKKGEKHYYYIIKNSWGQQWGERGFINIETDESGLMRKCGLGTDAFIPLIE
Procedure: Standard assay conditions for the determination of kinetic constants used 10 uM fluorogenic peptide substrate, Cbz-Phe-Arg-AMC for the cysteine proteases from Leishmania spp and Schistosoma Mansoni, Cbz-Leu-Arg-AMC for the cysteine proteases from Plasmodium falciparum and Trypanosoma brucei rhodesiensi, and Ac-Lys-Glu-Lys-Leu-Arg-AMC (4 uM final substrate concentration) for the cysteine protease from Trypoanosoma cruzi, and were determined in 100 mM Na acetate at pH 5.5 containing 5 mM cysteine. Stock substrate solutions were prepared at concentrations of […] in DMSO with 10 uM (4 uM for Ac-Lys-Glu-Lys-Leu-Arg-AMC) final substrate concentration in the assays. The final DMSO concentration was 2% and the final volume was 100 uL. All assays were conducted at ambient temperature. Product progress curves were generated over 20 to 30 minutes following formation of AMC product.
Potential inhibitors were evaluated using the progress curve method. Assays were carried out in the presence of variable concentrations of test compound. Reactions were initiated by addition of enzyme to buffered solutions of inhibitor and substrate. Data analysis was conducted according to one of two procedures depending on the appearance of the progress curves in the presence of inhibitors. For those compounds whose progress curves were linear, apparent inhibition constants (Ki,app) were calculated according to equation 1 (Brandt et al., Biochemitsry, 1989, 28, 140):
v=VmA/[Ka(1+I/Ki,app)+A] (1)
Where v is the velocity of the reaction with maximal velocity Vm, A is the concentration of substrate with Michaelis constant of Ka, and I is the concentration of inhibitor.
[AMC]=vsst+(v0−vss)[1−exp (−kobst)]/kobs (2)
Where [AMC] is the concentration of product formed over time t, v0 is the initial reaction velocity and vss is the final steady state rate. Values for kobs were then analyzed as a linear function of inhibitor concentration to generate an apparent second order rate constant (kobs/inhibitor concentration or kobs/[I]) describing the time-dependent inhibition. A complete discussion of this kinetic treatment has been fully described (Morrison et al., Adv. Enzymol. Relat. Areas Mol. Biol., 1988, 61, 201).
Exemplary inhibition data for the compounds used in the present method collected in accordance with the above-described procedure are listed in Table I.

Rhodazain = Rhodazain (Trypanosoma brucei rhodesiense, UniProt Q95PM0); assay: Cysteine protease inhibition, progress curve method, rhodazain; assay type: biochemical, Trypanosoma brucei rhodesiensi; details: Rhodazain Ki (nM), 10 uM Cbz-Leu-Arg-AMC, 100 mM Na acetate pH 5.5, 5 mM cysteine
Chain of Rhodazain (Q95PM0 entry or part of it): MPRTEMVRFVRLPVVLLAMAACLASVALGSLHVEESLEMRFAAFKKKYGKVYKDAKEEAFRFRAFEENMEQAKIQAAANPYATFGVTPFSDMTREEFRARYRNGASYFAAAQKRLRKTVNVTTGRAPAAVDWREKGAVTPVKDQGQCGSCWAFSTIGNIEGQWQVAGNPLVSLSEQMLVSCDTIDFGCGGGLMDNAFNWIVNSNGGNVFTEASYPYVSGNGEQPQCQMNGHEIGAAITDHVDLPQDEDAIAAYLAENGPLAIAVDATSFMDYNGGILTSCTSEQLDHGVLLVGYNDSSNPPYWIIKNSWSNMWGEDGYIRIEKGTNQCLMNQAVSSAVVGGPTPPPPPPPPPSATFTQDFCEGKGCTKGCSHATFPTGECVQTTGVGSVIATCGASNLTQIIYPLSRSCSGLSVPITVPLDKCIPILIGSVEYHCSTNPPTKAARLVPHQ

Chain of Cruzain (P25779 123-337): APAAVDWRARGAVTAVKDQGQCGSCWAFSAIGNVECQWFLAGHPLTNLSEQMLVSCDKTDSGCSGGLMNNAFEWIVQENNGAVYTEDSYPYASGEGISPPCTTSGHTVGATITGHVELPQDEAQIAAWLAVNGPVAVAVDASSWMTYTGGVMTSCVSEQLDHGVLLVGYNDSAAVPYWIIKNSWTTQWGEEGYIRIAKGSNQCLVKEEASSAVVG

Ki (Falcipain 2) [nM]	Structure (SMILES)	Ki (Cruzain) [nM]	Ki (Rhodazain) [nM]
65	CC(C)C[C@@H](NC(=O)c1cc2cc(OCCN3CCCCC3)ccc2o1)C(=O)N[C@@H]1CCCN(S(=O)(=O)c2ccccc2)CC1=O (stereo in doubt) [Example 9, 5-(2-Piperidin-1-yl-ethoxy)-benzofuran-2-carboxylic acid [(S)-1-(1-benzenesulfonyl-3-oxo-azepan-4-ylcarbamoyl)-3-methyl-butyl]amide]	–	–
96	CC(C)C[C@@H](NC(=O)c1ccc([N+](=O)[O-])o1)C(=O)N[C@@H]1CCCN(S(=O)(=O)c2ccccn2)CC1=O (stereo in doubt) [Example 35, 5-Nitro-furan-2-carboxylic acid {(S)-3-methyl-1-[3-oxo-1-(pyridine-2-sulfonyl)-azepan-4-ylcarbamoyl]-butyl}amide]	–	–
5.2	COc1ccc(S(=O)(=O)N2CCCC(NC(=O)C(CC(C)C)NC(=O)c3ccc4c(c3)OCO4)C(=O)C2)cc1 (stereo in doubt) [Example 73, Benzo[1,3]dioxole-5-carboxylic acid {(S)-1-[1-(4-methoxy-benzenesulfonyl)-3-oxo-azepan-4-ylcarbamoyl]-3-methyl-butyl}-amide]	–	–
3	CC(C)C[C@@H](NC(=O)c1cc2cc(OCCN3CCOCC3)ccc2o1)C(=O)NC1CCCN(C(=O)Cc2cccc(-c3ccccn3)c2)CC1=O (stereo partly drawn) [Example 3, 5-(2-morpholino-4-yl-ethoxy)-benzofuran-2-carboxylic acid ((S)-3-methyl-1-{3-oxo-1-[2-(3-pyridin-2-yl-phenyl)acetyl]-azepan-4-ylcarbamoyl}-butyl)amide]	–	–
34	CC(C)C[C@@H](NC(=O)c1cc2cc(OCCN3CCOCC3)ccc2o1)C(=O)N[C@@H]1CCCN(C(=O)Nc2ccccc2)CC1=O [Example 5, 4-((S)-4-Methyl-2-{[5-(2-morpholino-4-yl-ethoxy)-benzofuran-2-carbonyl]amino}-pentanoylamino)-3-oxo-azepane-1-carboxylic acid phenylamide]	–	–
14	CC(C)C[C@@H](NC(=O)c1cc2cc(OCCN3CCNCC3)ccc2o1)C(=O)N[C@@H]1CCCN(S(=O)(=O)c2ccccn2)CC1=O [Example 23, 5-(2-Piperizin-1-yl-ethoxy)-benzofuran-2-carboxylic acid {(S)-3-methyl-1-[3-oxo-1-(pyridine-2-sulfonyl)-azepan-4-ylcarbamoyl]-3-butyl}-amide]	–	–
5.3	CC(C)C[C@@H](NC(=O)c1cc2ccccc2s1)C(=O)N[C@@H]1CCCN(S(=O)(=O)c2cccc[n+]2[O-])CC1=O [Example 46, Benzo[b]thiophene-2-carboxylic acid {(S)-3-methyl-1-[3-oxo-1-(1-oxy-pyridine-2-sulfonyl)-azepan-4-ylcarbamoyl]-butyl}amide]	6.1	–
5.9	COc1ccc(S(=O)(=O)N2CCC[C@@H](NC(=O)[C@H](CC(C)C)NC(=O)c3ccc(OC)c(OC)c3)C(=O)C2)cc1 [Example 107, 3,4-Dimethoxy-N—{(S)-1-[1-(4-methoxy-benzenesulfonyl)-3-oxo-azepan-4-ylcarbamoyl]-3-methyl-butyl}-benzamide]	–	–
6.8	Cc1oc(-c2ccccc2)nc1C(=O)N[C@H](CC(C)C)C(=O)NC1CCCN(S(=O)(=O)c2cccc[n+]2[O-])CC1=O (stereo partly drawn) [Example 117, 5-Methyl-2-phenyl-oxazole-4-carboxylic acid {(S)-3-methyl-1-[3-oxo-1-(1-oxy-pyridine-2-sulfonyl)-azepan-4-ylcarbamoyl]-butyl}amide]	14	–
3.4	COc1cccc2cc(C(=O)N[C@@H](CC(C)C)C(=O)N[C@H]3CCCN(S(=O)(=O)c4ccc(Cl)cc4)CC3=O)oc12 [Example 133, 7-Methoxy-benzofuran-2-carboxylic acid-{(S)-1-[1-(4-chloro-benzenesulfonyl)-3-oxo-azepan-4-ylcarbamoyl]-3-methyl-butyl}-amide]	–	–
5.6	COc1cccc(S(=O)(=O)N2CCC[C@H](NC(=O)[C@H](CC(C)C)NC(=O)c3cc4cccc(OC)c4o3)C(=O)C2)c1 [Example 138, 7-Methoxy-benzofuran-2-carboxylic acid-{(S)-1-[1-(3-methoxy-benzenesulfonyl)-3-oxo-azepan-4-ylcarbamoyl]-3-methyl-butyl}-amide]	–	–
43	O=C(N[C@@H](CC1CCCCC1)C(=O)N[C@H]1CCCN(S(=O)(=O)c2cccc[n+]2[O-])CC1=O)c1ccc(-c2cccc(C(F)(F)F)c2)o1 [Example 169, 5-(3-Trifluoromethyl-phenyl)-furan-2-carboxylic acid {(S)-2-cyclohexyl-1-[3-oxo-1-(1-oxy-pyridine-2-sulfonyl)-azepan-4-ylcarbamoyl]-ethyl}-amide]	–	–

Structure (SMILES)	Ki (Falcipain 2) [nM]	Ki (Cruzain) [nM]	Ki (Rhodazain) [nM]
CC(C)C[C@@H](NC(=O)c1cc2ccccc2o1)C(=O)NC1CCCN(S(=O)(=O)c2ccccn2)CC1=O (single isomer, unassigned) [Example 21]	10	3.8	3.2
CC(C)C[C@@H](NC(=O)c1ccc2[nH]ccc2c1)C(=O)NC1CCCN(S(=O)(=O)c2cccc[n+]2[O-])CC1=O (single isomer, unassigned) [Example 64]	6.2	4.1	2.7
COc1ccc2oc(C(=O)N[C@H](CC(C)C)C(=O)N[C@@H]3CCCN(S(=O)(=O)c4ccccn4)CC3=O)cc2c1 (single isomer, unassigned) [Example 69]	5.6	–	2.2
CC(C)CC(NC(=O)c1ccc2c(c1)OCO2)C(=O)N[C@@H]1CCCN(S(=O)(=O)c2cccc[n+]2[O-])CC1=O (single isomer, unassigned) [Example 76]	7.8	14	5.4
CC(C)CC(NC(=O)c1ccc2c(c1)OCCCO2)C(=O)N[C@@H]1CCCN(S(=O)(=O)c2cccc[n+]2[O-])CC1=O (single isomer, unassigned) [Example 78]	7.1	4.4	4.6
CC(C)C[C@@H](NC(=O)c1ccc2cc[nH]c2c1)C(=O)N[C@@H]1CCCN(S(=O)(=O)c2ccccn2)CC1=O (stereo in doubt) [Example 58, 1H-Indole-6-carboxylic acid {(S)-3-methyl-1-[3-oxo-1-(pyridine-2-sulfonyl)-azepan-4-ylcarbamoyl]-butyl}amide]	7.1	–	3.1
CC(C)C[C@H](NC(=O)c1ccc(-c2cccc(C(F)(F)F)c2)o1)C(=O)N[C@@H]1CCCN(S(=O)(=O)c2ccccn2)CC1=O [Example 66, 5-(3-Trifluoromethyl-phenyl)-furan-2-carboxylic acid {(S)-3-methyl-1-[3-oxo-1-(pyridine-2-sulfonyl)-azepan-4-ylcarbamoyl]-butyl}amide]	10	–	5.1
[2H]C1(NC(=O)C(CC(C)C)NC(=O)c2cc3ccccc3o2)CCCN(S(=O)(=O)c2ccccn2)C([2H])([2H])C1=O [Example 100, Benzofuran-2-carboxylic acid {(S)-3-methyl-1-[(2,2′,4-tridueterio)-3-oxo-1-(pyridine-2-sulfonyl)-azepan-4-ylcarbamoyl]-butyl}amide]	6.4	–	2.5
CC(C)C[C@@H](NC(=O)c1ccc(-c2cccc(C(F)(F)F)c2)o1)C(=O)N[C@@H]1CCCN(S(=O)(=O)c2cccc[n+]2[O-])CC1=O [Example 119, 5-(3-Trifluoromethyl-phenyl)-furan-2-carboxylic acid {(S)-3-methyl-1-[3-oxo-1-(1-oxy-pyridine-2-sulfonyl)-azepan-4-ylcarbamoyl]-butyl}amide]	8.1	–	5.1
